Blank lines part the entries; values can stand above or below the compound they belong to.
Key:
PKC-ε [1] = biological target: T1, PKC-ε (Homo sapiens, UniProt Q02156); assay: PKC-ε activation: incorporation of 32P-inorganic phosphate from gamma-32P-ATP; type: biochemical
T1 sequence (Q02156 1-737): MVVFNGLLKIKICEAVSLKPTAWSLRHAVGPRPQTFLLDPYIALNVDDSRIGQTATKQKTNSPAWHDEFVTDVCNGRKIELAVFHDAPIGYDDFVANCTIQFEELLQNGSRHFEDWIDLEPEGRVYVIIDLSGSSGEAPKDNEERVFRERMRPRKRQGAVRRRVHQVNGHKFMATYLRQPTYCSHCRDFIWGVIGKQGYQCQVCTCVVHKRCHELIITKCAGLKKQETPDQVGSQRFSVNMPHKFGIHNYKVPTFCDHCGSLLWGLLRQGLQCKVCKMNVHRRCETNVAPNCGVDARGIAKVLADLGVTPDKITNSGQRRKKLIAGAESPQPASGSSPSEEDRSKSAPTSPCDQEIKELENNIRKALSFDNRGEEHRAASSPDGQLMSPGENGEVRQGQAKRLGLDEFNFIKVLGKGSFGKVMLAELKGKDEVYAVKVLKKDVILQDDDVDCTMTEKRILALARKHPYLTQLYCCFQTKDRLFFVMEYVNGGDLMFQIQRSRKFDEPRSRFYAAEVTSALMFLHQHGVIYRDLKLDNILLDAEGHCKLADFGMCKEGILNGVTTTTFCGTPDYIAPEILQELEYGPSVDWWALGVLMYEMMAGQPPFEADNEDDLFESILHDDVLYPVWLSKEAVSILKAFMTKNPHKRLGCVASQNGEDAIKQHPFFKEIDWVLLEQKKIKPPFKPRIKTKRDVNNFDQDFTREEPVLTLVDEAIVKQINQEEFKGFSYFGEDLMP
Method: Example 4: PKC-ε activation by DCPLA-EtF3 versus DCPLA methyl ester. […] Sen A, Alkon D L, Nelson T J, J. Biol. Chem. 287(19): 15947-58 (2012). PKC-ε activation by DCPLA-EtF3 was measured by measuring the incorporation of 32P-inorganic phosphate from gamma-32P-ATP by recombinant human PKC-ε.
Example 5: PKC-ε activation by 1,1,1-trifluoropropan-2-yl DCPLA. PKC-ε activation by 1,1,1-trifluoropropan-2-yl DCPLA was measured by measuring the incorporation of 32P-inorganic phosphate from gamma-32P-ATP by recombinant human PKC-ε. […] Activation started at 0.01 nM and was biphasic, consistent with a low and a high affinity binding site for DCPLA.

PKC-ε [2] = biological target: T1, PKC-ε; settings: earlier research, cited from earlier work

concentration at which PKC-ε activation started (PKC-ε [1]; FIG. 2): 10 pM
potency compared to unmodified DCPLA (PKC-ε [1]; FIG. 2, comparison in words): superior potency
shape of PKC-ε activation response (PKC-ε [1]; FIG. 2, consistent with a low and a high affinity binding site): biphasic
Structure (SMILES): CCCCCC1CC1CC1CC1CCCCCCCC(=O)OC(C)C(F)(F)F (stereo not drawn) [1,1,1-trifluoropropan-2-yl DCPLA]

concentration of peak PKC-ε activation (PKC-ε [1]; FIG. 1): 0.1 to 1 nM
potency as PKC-ε activator relative to DCPLA methyl ester (PKC-ε [1]; FIG. 1, more potent than DCPLA methyl ester): approximately 1000 times
Structure (SMILES): CCCCCC1CC1CC1CC1CCCCCCCC(=O)OCC(F)(F)F (stereo not drawn) [DCPLA-EtF3, DCPLA-trifluoroethyl ester]
extent of PKC-ε activation compared with DCPLA methyl ester (PKC-ε [1]; FIG. 1, comparison in words): approximately the same extent of activation as DCPLA methyl ester
potency compared with bryostatin-1 (PKC-ε [1]; comparison in words): approximately equal to that of bryostatin-1

Structure (SMILES): CCCCCC1CC1CC1CC1CCCCCCCC(=O)OC (stereo not drawn) [DCPLA methyl ester]
concentration of maximum PKC-ε activation (PKC-ε [2]): 0.1 µM
potency as PKC-ε activator relative to unesterified DCPLA (PKC-ε [2]; more potent than unesterified DCPLA): approximately 100 times

Reference: patent US12016837B2, “Halogenated esters of cyclopropanated unsaturated fatty acids for use in the treatment of neurodegenerative diseases” (Synaptogenix, Inc., priority 2013, dated 2024)
